Patent publication US11377473B2, “Albumin-binding prodrugs of auristatin E derivatives” (priority 2017, dated 2022)

Columns and labels:
[1] = tested on: renal cell cancer model RXF631; test: Human renal cell cancer model RXF631, small tumors; format: in vivo, NMRI nude mice
Description: (§1) Mice were kept under a 14-hour light/10-hour dark, artificial light cycle. The animals were fed with autoclaved Teklad Global 19% Protein Extruded Diet (T.2019S.12) from Envigo RMS SARL and had access to sterile filtered and acidified (pH 2.5) tap water which was changed twice weekly. Feed and water were provided ad libitum. […] Animals were routinely monitored twice daily on working days and daily on Saturdays and Sundays. Starting on day 0, animals were weighed twice a week. Relative body weights (RBW) of individual animals were calculated by dividing the individual absolute body weight on day X (BWx) by the individual body weight on the day of randomization multiplied by 100%. […] Tumor volumes were calculated according to the following equation: […]
(§2) Statistical analysis was only carried out if at least 50% of the initially randomized animals in a relevant group were still alive. Comparisons between test groups were carried out for the same days. By convention, p-values ≤0.05 indicate significance of tumor inhibition. Statistical calculations were performed using GraphPad Prism bioanalytic software (San Diego Calif. USA, www.graphpad.com).
The initial evaluation of auristatin E and the albumin-binding auristatin E derivative AE-Ester-Sulf07 in a human renal cell cancer model RXF631 was carried out as described in the general procedure for a patient-derived xenograft model.

[2] = target: T1, cysteine-34 of human serum albumin (Homo sapiens, UniProt P02768); test: Binding specificity to cysteine-34 of human serum albumin in human plasma (HIC); format: in vitro ADME; settings: 5 minutes at 37° C.
T1 construct: from tissue; host or cells: human plasma (frozen, thawed, filtered)
Procedure: The albumin-binding auristatin-Sulf07 derivatives were reconstituted in 50 mM sodium phosphate buffer pH 7.6 and 5% sucrose which contained 2-HPβCD. 2% HPβCD concentration was used to reconstitute the AE-Keto-Sulf07 and 4% for the AE-Ester-Sulf07 respectively. Both drugs were reconstituted at a concentration of 1 mg/mL (AE-Ester-Sulf07 780 μM, AE-Keto-Sulf07 880 μM).
Human plasma was removed from −80° C. storage and allowed to reach room temperature. The thawed plasma was spun down at 13.6 kRPM for 60 seconds, the supernatant was filtered through filter needle (5 μm) and subsequently through a 0.45 μm CA membrane. 180 μL of the appropriate plasma was used for each binding experiment. The plasma was incubated at 37° C. using an Eppendorf Thermomixer C. After 30 minutes incubation 20 μL of the appropriate albumin-binding auristatin-Sulf07 derivative was added. The albumin-binding drug was allowed to react in the plasma for 5 minutes at 37° C. After 5 minutes the solution was analyzed directly by HPLC hydrophobic interaction chromatography (HIC, method 6, 250 nm) to confirm the site specific conjugation to albumin and formation of the albumin drug conjugate.

albumin in murine plasma = target: T2, albumin in murine plasma (Mus musculus, UniProt P07724); test: Binding kinetics to albumin in murine plasma; format: in vitro ADME, CD1 murine; settings: 37° C.
T2 construct: CD1 murine plasma and Sprague Dawley rat plasma were removed from −80° C. storage; from tissue; host or cells: CD1 murine plasma (frozen, thawed, filtered)
Procedure: CD1 murine plasma and Sprague Dawley rat plasma were removed from −80° C. storage and allowed to reach room temperature. The thawed plasma was spun down at 13.6 kRPM for 60 seconds, the supernatant was filtered through a filter needle (5 μm) and subsequently through a 0.45 μm CA membrane.
All binding experiments were carried out in triplicate. The plasma was incubated at 37° C. using an Eppendorf Thermomixer C. After 30 minutes incubation 40 μL of the appropriate albumin-binding auristatin-Sulf07 derivative was dissolved in its reconstitution solution and added to the plasma. Samples (40 μL) were taken after 15 seconds, 2 minutes, 4 minutes, 8 minutes and 15 minutes (5 samples).
The samples were immediately added to 160 μL of acetonitrile (containing 4 μg/mL of 'MMAE as an internal standard) and vortexed for 1 minute.
The solutions were pipetted into an Impact plasma precipitation plate (shaken for 60 seconds) and filtered by vacuum onto a 96 well plate. Remaining drug was determined by LCMS quantification (method 5, 30 μL injection) using MRM MS2 negative mode (multiple reaction monitoring). Parent ions: auristatin F (Mass-744.8), AE-Keto-Sulf07 (Mass-1135.1) and AE-Ester-Sulf07 (Mass-1283.2). Percentage of binding was determined by comparing the AUC for AE-Keto-Sulf07 and AE-Ester-Sulf07 to calibration curves generated by LCMS for each compound.

[3] = tested on: malignant melanoma cancer model A375; test: Human malignant melanoma cancer model A375, small tumors; format: in vivo, NMRI nude mice
Procedure: Feed and water were provided ad libitum. […] Identification used: ear mark and cage labels. […] Tumor volumes were calculated according to the following equation: […]
The evaluation of auristatin E and the albumin-binding auristatin E derivative AE-Keto-Sulf07 in a human malignant melanoma cancer model A375 was carried out as described in the general procedure for cell-line-derived xenograft models.
Stock solutions were prepared as follows: • 1) 7 mice, 29 g average weight, 135 mm^3 average median tumor volume on day of randomization: 0.3 mg/kg auristatin E TFA salt (AE equiv.) dosed twice weekly for 3 weeks on day 0, 6, 9, 13, 16, 19≡0.35 mg/kg≡7.1 μg/20 g mouse.

[4] = tested on: NSCLC xenograft model LXFA737; test: Human non-small cell lung cancer model LXFA737, large tumors; format: in vivo, NMRI nude mice
Description: as §1, §2
The evaluation of auristatin E and the albumin-binding auristatin E derivative AE-Keto-Sulf07 in a human non-small cell lung cancer model LXFA737 was carried out as described in the general procedure for patient-derived xenograft models.
Sample preparation: 51 mg weighed in a 100 mL vial dissolved in 36.5 mL 50/50 tert-butanol/10 mM sodium citrate buffer, 3% 2-HPßCD—pH 6.2; 2.4 mL were aliquoted in 4 mL vials.

[5] = 3.0 mg/kg six times twice weekly

T2 sequence (P07724 25-608): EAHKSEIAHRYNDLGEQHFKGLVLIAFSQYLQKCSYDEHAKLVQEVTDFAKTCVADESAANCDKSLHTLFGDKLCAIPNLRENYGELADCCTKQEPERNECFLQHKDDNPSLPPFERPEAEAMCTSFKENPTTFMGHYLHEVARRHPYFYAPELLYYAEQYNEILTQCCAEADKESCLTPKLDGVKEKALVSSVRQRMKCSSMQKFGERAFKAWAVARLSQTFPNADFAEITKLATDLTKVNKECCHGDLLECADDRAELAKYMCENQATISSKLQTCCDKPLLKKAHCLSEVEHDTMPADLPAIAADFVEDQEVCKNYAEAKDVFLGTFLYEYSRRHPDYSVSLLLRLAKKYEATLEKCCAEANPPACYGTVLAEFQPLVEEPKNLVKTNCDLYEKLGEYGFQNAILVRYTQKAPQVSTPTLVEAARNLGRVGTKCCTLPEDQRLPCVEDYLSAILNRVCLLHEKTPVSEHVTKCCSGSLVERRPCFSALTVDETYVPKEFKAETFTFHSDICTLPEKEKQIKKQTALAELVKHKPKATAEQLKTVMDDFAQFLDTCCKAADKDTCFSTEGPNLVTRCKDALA
T1 sequence (P02768 25-609): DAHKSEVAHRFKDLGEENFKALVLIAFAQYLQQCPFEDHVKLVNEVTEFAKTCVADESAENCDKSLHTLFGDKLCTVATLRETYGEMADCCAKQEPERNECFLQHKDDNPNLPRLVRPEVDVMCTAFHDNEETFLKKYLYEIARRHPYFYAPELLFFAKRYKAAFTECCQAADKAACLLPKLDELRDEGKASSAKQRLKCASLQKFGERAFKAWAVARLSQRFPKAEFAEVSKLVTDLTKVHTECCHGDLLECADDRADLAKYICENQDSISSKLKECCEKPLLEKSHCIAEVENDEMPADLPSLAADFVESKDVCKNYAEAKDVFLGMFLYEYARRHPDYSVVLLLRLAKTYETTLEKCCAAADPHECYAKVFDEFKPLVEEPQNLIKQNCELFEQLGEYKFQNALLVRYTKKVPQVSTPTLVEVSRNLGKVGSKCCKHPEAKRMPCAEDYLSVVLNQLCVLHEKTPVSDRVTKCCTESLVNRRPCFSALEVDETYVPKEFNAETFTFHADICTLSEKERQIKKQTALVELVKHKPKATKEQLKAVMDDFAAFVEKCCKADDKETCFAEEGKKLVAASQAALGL

Row | Molecule | minimum tumor volume ([1]; 2.2 mg/kg (3.0 mg/kg on day 15 and 19) twice weekly) [mm^3] | tumor response ([1]; 2.2 mg/kg (3.0 mg/kg on day 15 and 19) twice weekly, day 24 to day 53) | p, antitumor efficacy versus auristatin E ([1]; 2.2 mg/kg (3.0 mg/kg on injection day 15 and 19) versus auristatin E 0.3 mg/kg, twice weekly) | side effects ([1]; 2.2-3.0 mg/kg twice weekly) | animals lost ([1]; 2.2-3.0 mg/kg, on day 20, 43 and 66) | transient body weight loss ([1]; 2.2-3.0 mg/kg, reached on day 31) [%] | specificity of binding to albumin [2] | albumin binding in plasma (albumin in murine plasma) | body weight [3, 5] | side effects [3, 5] | tumor response ([3]; 3.0 mg/kg six times twice weekly, day 19 until end of study on day 37) | p, antitumor efficacy versus auristatin E ([3]; 3.0 mg/kg versus auristatin E 0.3 mg/kg, six injections twice weekly, day 27 to day 37) | final tumor volume ([3]; 3.0 mg/kg, day 37) [mm^3] | side effects ([4]; 4.5 mg/kg 8 times twice weekly) | tumor response ([4]; 4.5 mg/kg 8 times twice weekly, day 15 until end of study on day 59) | p, antitumor efficacy versus auristatin E ([4]; 4.5 mg/kg versus auristatin E 0.3 mg/kg, 8 times twice weekly, day 28) | tumor response ([1]; 0.3 mg/kg twice weekly, up to day ˜40) | tumor response ([3]; 0.3 mg/kg six times twice weekly, until day 21) | antitumor activity ([4]; 0.3 mg/kg 8 times twice weekly)
1 | 2-(2-(1-(4-(((1S,2R)-2-((2R,3R)-3-((S)-1-((3R,4R,5S)-4-((S)-2-((R)-2-(dimethylamino)-3-methylbutanamido)-N,3-dimethylbutanamido)-3-methoxy-5-methylheptanoyl)pyrrolidin-2-yl)-3-methoxy-2-methylpropanamido)-1-phenylpropoxy)carbonyl)phenyl)ethylidene)hydrazine-1-carbonyl)-5-(6-(2,5-dioxo-2,5-dihydro-1H-pyrrol-1-yl)hexanamido)benzenesulfonic acid [AE-Ester-Sulf07] | 1 | complete remission (complete remission <10%) | < 0.05 | Wounds due to biting and scratching were also observed starting from day 17 | Two mice died, and one had to be sacrificed for general bad conditions | 9 | demonstrated | very rapid | – | – | – | – | – | – | – | – | – | – | –
2 | CC[C@H](C)[C@@H]([C@@H](CC(=O)N1CCC[C@H]1[C@H](OC)[C@@H](C)C(=O)N[C@H](C)C(=NNC(=O)c1ccc(NC(=O)CCCCCN2C(=O)C=CC2=O)cc1S(=O)(=O)O)c1ccccc1)OC)N(C)C(=O)[C@@H](NC(=O)[C@H](C(C)C)N(C)C)C(C)C [AE-Keto-Sulf07, 2-(2-((R)-2-((2R,3R)-3-((S)-1-((3R,4S,5S)-4-((S)-2-((S)-2-(dimethylamino)-3-methylbutanamido)-N,3-dimethylbutanamido)-3-methoxy-5-methylheptanoyl)pyrrolidin-2-yl)-3-methoxy-2-methylpropanamido)-1-phenylpropylidene)hydrazine-1-carbonyl)-5-(6-(2,5-dioxo-2,5-dihydro-1H-pyrrol-1-yl)hexanamido)benzenesulfonic acid] | – | – | – | – | – | – | demonstrated | very rapid | only a slight reduction in body weight growth compared to the control | no detectable side effects | complete remission (complete remission <10%) | < 0.01 | 1 | No side effects were registered | partial tumor remission | < 0.01 | – | – | –
3 | CC[C@H](C)[C@@H]([C@@H](CC(=O)N1CCC[C@H]1[C@H](OC)[C@@H](C)C(=O)N[C@H](C)[C@@H](O)c1ccccc1)OC)N(C)C(=O)[C@@H](NC(=O)[C@H](C(C)C)N(C)C)C(C)C [auristatin E] | – | – | – | – | – | – | – | – | – | – | – | – | – | – | – | – | stable disease (stable disease >75-125%) | stable disease (stable disease >75-125%) | did not show any activity
